The values below come from publication PMC7272617 (Scientific Reports, 2020).

≈ marks a conversion by molar mass, not a printed value. Like-named read-outs stand apart in the source and are kept apart here. Where a SMILES comes first, the peptide text is derived from it. Bridges are numbered along the chain shown (N, C = ends). [ ]: non-standard residue; d: D form. The star is where a group is joined. X1 = CC[C@H](C)CCCCC(=O)*; Dab = NCC[C@H](N)C(=O)O Where only a bound is given, the exact number is not on record here.

Test [1] has as its system all Gram-positive strains. Briefly: Mean MIC and therapeutic index, Gram-positive strains. The format is cell-based. The conditions noted are these: 5 Gram-positive strains of Table 3. The protocol:
(§1) The antimicrobial activity of the peptides was determined against both Gram-positive and -negative bacteria including 14 MDR P. aeruginosa clinical isolates from Bhumibol Adulyadej Hospital (Tables 1 and 3). The minimal inhibitory concentration (MIC) of each peptide was measured according to a modification of the National Committee for Clinical Laboratory Standards (NCCLS) broth microdilution method as previously described. Briefly, bacterial cells in mid-log phase were cultured in Müeller-Hinton broth (MHB) and then diluted to 10^7 CFU/ml. […] Plates were incubated at 37 °C for 24 h, and MICs were defined as the lowest concentration of peptide that prevented visible turbidity. Cultures without peptides and uninoculated MHB were employed as positive and negative controls, respectively. Colony count assays were performed to determine the minimal bactericidal concentrations (MBCs) for determination of time-killing activity. As previously described, a 50 μl aliquot from each non-turbid well identified in the MIC determination experiment was spread on agar plates.
(§2) To further evaluate the global activity of these peptides, the geometric mean (GM) MIC and the therapeutic index (TI) of each were calculated (Table 3). The TI, a widely used parameter to evaluate cell selectivity and specificity of antimicrobial agents, was calculated as the ratio of MHC (the concentration that causes 10% hemolysis) to the geometric mean of MICs[22]. Higher TIs indicated greater cell selectivity and specificity.

The subject of test [2] is Vibrio cholera O1 Inaba DMST 16261. The note with it: MHB, 37 °C, 24 h.
The test system of test [3] is all Gram-negative strains. Description: Mean MIC and therapeutic index, Gram-negative strains. In kind it is cell-based. The conditions noted are these: 7 Gram-negative strains of Table 3. The protocol:
as §1, §2

The subject of test [4] is Pseudomonas aeruginosa ATCC 27853.
The test system of test [5] is Salmonella Typhimurium ATCC 13311. The conditions noted are these: ATCC 13311, 24 h.
In test [6] the test system is Shigella sonnei ATCC 11060. The conditions noted are these: MHB, 37 °C, 24 h.
For test [7], the system named is Enterococcus faecalis ATCC 29212. The note with it: ATCC 29212, 24 h.
Test [8] deals with Staphylococcus aureus ATCC 25923. The conditions noted are these: ATCC 25923, 24 h.
Test [9] has as its system Bacillus cereus ATCC 11778. The note with it: ATCC 11778, 24 h.
In test [10] the test system is Escherichia coli ATCC 25922. The note with it: ATCC 25922, 24 h.
Test [11] deals with Acinetobacter baumannii MT strain. The conditions noted are these: MT strain, 24 h.
Test [12] relates to Gram-negative and -positive bacterial strains. Description: MIC against the panel of Gram-negative and -positive bacterial strains. In kind it is cell-based. The conditions noted are these: 12 strains of Table 3; result in words.
Test [13] deals with Staphylococcus epidermidis ATCC 12228. The conditions noted are these: ATCC 12228, 24 h.
In test [14] the test system is Listeria monocytogenes 10403 s. The note with it: 10403 s, 24 h.
The subject of test [15] is Escherichia coli O157:H7 MT strain. The conditions noted are these: E. coli O157:H7 MT strain; MHB, 37 °C, 24 h.
The subject of test [16] is MDR P. aeruginosa clinical isolate No.3. The note with it: MDR P. aeruginosa clinical isolate No.3.
Test [17] deals with MDR P. aeruginosa clinical isolate No.9. The conditions noted are these: MDR P. aeruginosa clinical isolate No.9.
Test [18] relates to MDR P. aeruginosa clinical isolate No.5. The conditions noted are these: MDR P. aeruginosa clinical isolate No.5.
Test [19] has as its system MDR P. aeruginosa clinical isolate No.4. The note with it: MDR P. aeruginosa clinical isolate No.4.
The test system of test [20] is MDR P. aeruginosa clinical isolate No.2. The conditions noted are these: MDR P. aeruginosa clinical isolate No.2.
Test [21] has as its system MDR P. aeruginosa clinical isolate No.13. The conditions noted are these: MDR P. aeruginosa clinical isolate No.13.
In test [22] the test system is MDR P. aeruginosa clinical isolate No.14. The conditions noted are these: MDR P. aeruginosa clinical isolate No.14.
Test [23] has as its system MDR P. aeruginosa clinical isolate No.7. The note with it: MDR P. aeruginosa clinical isolate No.7.
In test [24] the test system is MDR P. aeruginosa clinical isolate No.11. The conditions noted are these: MDR P. aeruginosa clinical isolate No.11.
Test [25] concerns MDR P. aeruginosa clinical isolate No.8. The note with it: MDR P. aeruginosa clinical isolate No.8.
Test [26] concerns MDR P. aeruginosa clinical isolate No.6. The note with it: MDR P. aeruginosa clinical isolate No.6.
Test [27] concerns MDR P. aeruginosa clinical isolate No.12.
Test [28] relates to MDR P. aeruginosa clinical isolate No.10. The note with it: MDR P. aeruginosa clinical isolate No.10.
Test [29] concerns MDR P. aeruginosa clinical isolate No.1.
Setting [30] is: P. aeruginosa ATCC 27853, MHB, 10^7 CFU/ml, 37 °C, 24 h, no visible turbidity.

By MIC is commonly meant the lowest concentration that inhibits growth of the organism. Low readings indicate greater potency, high ones weaker potency. With `CC[C@H](C)[C@H](NC(=O)[C@H](CC(=O)O)NC(=O)[C@H](Cc1ccccc1)NC(=O)[C@H](CC(C)C)NC(=O)CN)C(=O)N[C@H](C(=O)N[C@@H](CCCCN)C(=O)N[C@@H](CCCCN)C(=O)N[C@H](C(=O)N[C@@H](C)C(=O)NCC(N)=O)C(C)C)C(C)C` [A0] (H-GLFDIVKKVAG-NH2; N-terminus assumed), the “GM (Gr.+ strains): geometric mean of MIC values from all Gram-positive strains” value (from here on “GM (Gr.+ strains): geometric mean”) in test [1] is above 250 µg/mL. Moreover, the minimum inhibitory concentration (MIC) in [2] was above 250 µg/mL; in [4] (ATCC 27853, 24 h), above 250 µg/mL; in [5], above 250 µg/mL; in test [6], above 250 µg/mL; in test [7] it was above 250 µg/mL; in test [8], above 250 µg/mL. The minimal inhibitory concentration (MIC) in test [9], in test [10], in [11], in test [13], in [14] and in [15] was above 250 µg/mL throughout. In addition, the “GM (Gr.− strains): geometric mean of MIC values from all Gram-negative strains” value (from here on “GM (Gr.− strains): geometric mean”) in test [3] was above 250 µg/mL. In addition, the “antibacterial activity against tested microorganisms” value (from here on “antibacterial activity”) in test [12] was “no antibacterial activity”.
Turning to Gentamycin, the minimal inhibitory concentration (MIC) in test [16] was above 125 µg/mL; in test [17] it was above 125 µg/mL; in [18], 125 µg/mL; in test [19], above 125 µg/mL; in [20], above 125 µg/mL; in [21], above 125 µg/mL. For the same compound, the MIC is above 125 µg/mL in test [22]; at most 0.98 µg/mL in [4] (setting [30]); 125 µg/mL in [23]; above 125 µg/mL in [24]; above 125 µg/mL in [25]; above 125 µg/mL in test [26]. For the same compound, the minimal inhibitory concentration (MIC) in test [27] was 125 µg/mL; in test [28], above 125 µg/mL; in test [29], above 125 µg/mL.
For the compound `CC[C@H](C)[C@H](NC(=O)[C@H](CCCNC(=N)N)NC(=O)[C@H](CCCCN)NC(=O)[C@H](CCCCN)NC(=O)[C@@H](NC(=O)[C@H](CCCCN)NC(=O)[C@H](CCC(=O)O)NC(=O)[C@H](CCCCN)NC(=O)[C@@H](N)CCCNC(=N)N)[C@@H](C)CC)C(=O)NCC(=O)N[C@@H](CCCCN)C(=O)N[C@H](C(=O)N[C@@H](CC(=O)O)C(=O)N[C@@H](CCCNC(=N)N)C(=O)N[C@@H](CC(C)C)C(N)=O)[C@@H](C)CC` [P0] (H-RKEKIKKRIGKIDRL-NH2; N-terminus assumed), the “GM (Gr.+ strains): geometric mean” value in test [1] is above 250 µg/mL. Further, the minimal inhibitory concentration (MIC) in test [2] was above 250 µg/mL; in [4] (ATCC 27853, 24 h), above 250 µg/mL; in [5], above 250 µg/mL; in [6], above 250 µg/mL; in [7] it was above 250 µg/mL; in test [8] it was above 250 µg/mL. The MIC in test [9], in test [10], in test [11], in [13], in test [14] and in test [15] was above 250 µg/mL in each case. The “GM (Gr.− strains): geometric mean” value in [3] is above 250 µg/mL. Further, in test [12], the “antibacterial activity” value was “no antibacterial activity”.
On to `CC(C)C[C@H](NC(=O)[C@@H](N)CCCNC(=N)N)C(=O)N[C@@H](Cc1ccccc1)C(=O)N[C@@H](CCCNC(=N)N)C(=O)N[C@@H](CCCNC(=N)N)C(=O)N[C@H](C(=O)N[C@@H](CCCCN)C(=O)N[C@@H](CCCCN)C(=O)N[C@H](C(=O)N[C@@H](C)C(=O)NCC(N)=O)C(C)C)C(C)C` [A3] (H-RLFRRVKKVAG-NH2; N-terminus assumed), for which the “GM (Gr.+ strains): geometric mean” value in test [1] is above 250 µg/mL. Moreover, the MIC was above 250 µg/mL in [2]; above 250 µg/mL in [4] (ATCC 27853, 24 h); above 250 µg/mL in test [5]; above 250 µg/mL in test [6]; above 250 µg/mL in test [7]; above 250 µg/mL in test [8]. The minimal inhibitory concentration (MIC) in [9] is above 250 µg/mL; in test [10], above 250 µg/mL; in test [11], above 250 µg/mL; in test [13] it was above 250 µg/mL; in test [14], 250 µg/mL (≈ 188 µM); in test [15], above 250 µg/mL. Besides, the “GM (Gr.− strains): geometric mean” value in test [3] is above 250 µg/mL. Further, the “antibacterial activity” value in [12] is recorded as “no antibacterial activity”.
For `CC[C@H](C)[C@H](NC(=O)[C@H](CCCNC(=N)N)NC(=O)[C@H](CCCCN)NC(=O)[C@H](C)NC(=O)[C@@H](NC(=O)[C@@H](N)CCCCN)[C@@H](C)CC)C(=O)N[C@@H](Cc1c[nH]c2ccccc12)C(=O)N[C@@H](CCCCN)C(=O)N[C@H](C(=O)N[C@@H](CC(C)C)C(=O)N[C@@H](CCCNC(=N)N)C(=O)N[C@@H](CCCNC(=N)N)C(N)=O)[C@@H](C)CC` [P7] (H-KIAKRIWKILRR-NH2; N-terminus assumed), the “GM (Gr.+ strains): geometric mean” value in test [1] was found to be 121.09 µg/mL. Further, the minimal inhibitory concentration (MIC) in test [2] is 31.25 µg/mL (≈ 19.8 µM); in [4] (ATCC 27853, 24 h), 7.81 µg/mL (≈ 4.94 µM); in test [5], 7.81 µg/mL (≈ 4.94 µM); in test [7] it was above 250 µg/mL; in [8], 62.5 µg/mL (≈ 39.6 µM); in [10] it was 15.63 µg/mL (≈ 9.89 µM). In addition, the minimal inhibitory concentration (MIC) stood at 7.81 µg/mL (≈ 4.94 µM) in test [11], 3.91 µg/mL (≈ 2.47 µM) in test [13], 7.81 µg/mL (≈ 4.94 µM) in [14] and 125 µg/mL (≈ 79.1 µM) in [15]. Moreover, the “GM (Gr.− strains): geometric mean” value in test [3] stood at 28.46 µg/mL. Besides, the “antibacterial activity” value in test [12] is “potent antibacterial activity”.
Turning to `CC[C@H](C)CCCCC(=O)N[C@@H](CCN)C(=O)N[C@H](C(=O)N[C@@H](CCN)C(=O)N[C@H]1CCNC(=O)[C@H]([C@@H](C)O)NC(=O)[C@H](CCN)NC(=O)[C@H](CCN)NC(=O)[C@H](CC(C)C)NC(=O)[C@@H](CC(C)C)NC(=O)[C@H](CCN)NC1=O)[C@@H](C)O` [Colistin] (X1-[Dab]T[Dab][Dab][Dab][dL]L[Dab][Dab]T; lactam 4-C (inferred); N-terminus assumed), the MIC in [16] was found to be 1.95 µg/mL (≈ 1.67 µM); in [17] it was 0.98 µg/mL (≈ 0.838 µM); in test [18], 1.95 µg/mL (≈ 1.67 µM); in [19] it was 1.95 µg/mL (≈ 1.67 µM); in test [20], 1.95 µg/mL (≈ 1.67 µM); in [21], 0.98 µg/mL (≈ 0.838 µM). For the same compound, the minimal inhibitory concentration (MIC) is 0.98 µg/mL (≈ 0.838 µM) in [22]; at most 0.98 µg/mL in [4] (setting [30]); 0.98 µg/mL (≈ 0.838 µM) in [23]; 1.95 µg/mL (≈ 1.67 µM) in test [24]; 0.98 µg/mL (≈ 0.838 µM) in test [25]; 1.95 µg/mL (≈ 1.67 µM) in test [26]. The minimum inhibitory concentration (MIC) in test [27], in test [28] and in test [29] was 1.95 µg/mL (≈ 1.67 µM) each time.
